# Experimental data reported in PMC11990103, “Anticancer Activity and Safety Profile of Novel 1-(4-Fluorophenoxyacetyl)-4-substituted Thio/Semicarbazide Derivatives” (Molecules, 2025).
# Tests used:
# Type in all cases: cell-based, human
# G-361 melanoma cells = experiment: Cell cycle analysis by image cytometry (NucleoCounter NC-3000); conditions: G-361, 48 h, AB2 at concentration corresponding to IC50
# Description: (§1) To further evaluate the anticancer activity of thiosemicarbazide derivative AB2 in G-361 and LNCaP cell lines, cell cycle analysis by image cytometry and detection of apoptosis using annexin V and propidium iodide was performed. Analyses of the action of AB2 on the distribution of cells in different phases of the cell cycle indicated a significant increase in the population of cells in the sub-G1 phase compared to the control cultures, in both tested prostate and melanoma cells. This population increased from 7% and 5% in control cells to 26% and 27% after exposure to AB2 in LNCaP and G-361 cells, respectively (Figure 8A). The increase in the cell population in the sub-G1 phase indicates the presence of apoptosis or necrosis in the investigated cells and not a significant inhibition of cell proliferation, i.e., a cytostatic effect.
# (§2) Cell cycle analysis was assessed with the NucleoCounter NC-3000 (ChemoMetec, Allerod, Denmark) following the 2-Step Cell Cycle Assay protocol recommended by the manufacturer. The research was performed after 48 h incubation of prostate cancer cells (LNCaP) and melanoma cells (G-361) with AB2 compound in a concentration corresponding to IC50 value. Analysis was performed in line with the previously described methodology.
# [1] = system: LNCaP prostate cancer cells; experiment: as above; conditions: 48 h, AB2 at concentration corresponding to IC50
# Description: as §1, §2
# G-361 melanoma cell line = experiment: qRT-PCR relative gene expression; conditions: G-361, 24 h, concentration corresponding to IC50
# Description: (§3) An analysis was conducted to examine the impact of the thiosemicarbazide AB2 on LNCaP prostate cancer cells and G-361 melanoma cells, focusing on the expression of genes associated with oxidative stress, cell cycle regulation, DNA repair, and apoptosis. Superoxide dismutase (SOD2), catalase (CAT), and glutathione peroxidase 1 (GPX1) are critical antioxidant enzymes that protect cells from oxidative stress by neutralizing reactive oxygen species (ROS) and mitigating potential cellular damage. […] This indicates heightened activation of cell cycle arrest mechanisms, given that p21 acts as an important inhibitor of cyclin-dependent kinases essential for cell cycle progression. […] The contrasting alterations in CDKN1A and CYCD indicate a transition toward cell cycle arrest in response to AB2 (Figure 9B). The next assessed panel of genes includes those involved in DNA damage sensing and repair, specifically ATM and ATR. ATM and ATR are fundamental components of the DNA damage response, responsible for the detection and repair of double-strand and single-strand DNA breaks, respectively.
# (§4) The last assessed panel of genes includes genes involved in the process of apoptosis. BAX is a protein that enhances apoptosis, a natural to eliminate damaged or cancer cells. On the other hand, BCL-2 prevents apoptosis, helping cancer cells survive and resist therapy. […] The decrease in BCL-2 expression, along with stable BAX levels, led to a higher BAX/BCL-2 ratio in comparison to the control.
# (§5) The relative gene expression was quantitatively assessed using real-time PCR. […] Next, for cell lysis the 1 mL of TRIzol™ reagent (Invitrogen, Carlsbad, CA, USA) was added. RNA was isolated according to the Chomczynski and Sacchi method. The RNA was reverse transcribed using NG dART RT-PCR reagents (EURx, Gdańsk, Poland) according to the manufacturer’s instructions. Following the manufacturer’s recommendation, the qPCR reaction was conducted in triplicate in a 7500 fast real-time PCR machine (ThermoFisher, Waltham, MA, USA) using Fast SG/ROX qPCR Master Mix (2×) (EURx, Gdansk, Poland). 18SRNA and BACT were used as reference genes. Gene expression was evaluated using qRT-PCR and ΔΔCt. Statistical analysis was conducted using RQ values (RQ = […]).
# [2] = system: LNCaP prostate cancer cell line; experiment: qRT-PCR relative gene expression; conditions: 24 h, concentration corresponding to IC50
# Description: as §3, §4, §5
structure (smiles),measurement,setting,value
O=C(COc1ccc(F)cc1)NNC(=S)Nc1ccccc1Cl [AB2],cells in sub-G1 phase (M1),G-361 melanoma cells,27%
same,cells in sub-G1 phase (M1),[1],26%
same,ATM gene expression,G-361 melanoma cell line,downregulated
same,ATR gene expression,G-361 melanoma cell line,downregulated
same,BAX gene expression,G-361 melanoma cell line,did not differ from the control cultures
same,BAX/BCL-2 ratio in comparison to the control,G-361 melanoma cell line,higher
same,BCL-2 gene expression,G-361 melanoma cell line,significantly downregulated
same,"CAT gene expression, increase",G-361 melanoma cell line,approximately 8 fold
same,CDKN1A (p21) gene expression,G-361 melanoma cell line,significantly upregulated
same,CYCD (cyclin D) gene expression,G-361 melanoma cell line,notably downregulated
same,GPX1 gene expression,G-361 melanoma cell line,moderate but significant rise
same,"SOD2 gene expression, rise compared to control",G-361 melanoma cell line,> 100 fold
same,TP53 gene expression,G-361 melanoma cell line,significant downregulation
same,ATM gene expression,[2],downregulated
same,ATR gene expression,[2],downregulated
same,BAX gene expression,[2],did not differ from the control cultures
same,BAX/BCL-2 ratio in comparison to the control,[2],higher
same,BCL-2 gene expression,[2],significantly downregulated
same,"CAT gene expression, increase",[2],~6 fold
same,CDKN1A (p21) gene expression,[2],significantly upregulated
same,CYCD (cyclin D) gene expression,[2],notably downregulated
same,GPX1 gene expression,[2],moderate but significant rise
same,"SOD2 gene expression, increase compared to control",[2],> 20 fold
same,TP53 gene expression,[2],significant downregulation
